Reference: patent US20120015925A1, “NOVEL BENZOTHIAZEPINE AND BENZOTHIEPINE COMPOUNDS” (ASAHI KASEI PHARMA CORPORATION, priority 2004, published 2012)

Assays:
Caco-2 cells [1] = assay: Measurement of permeability through Caco-2 cell; type: in vitro ADME, human; conditions: 2 hours
Procedure: Permeability of the compound described in Examples through Caco-2 cells was studied with reference to Artursson Per et al.'s method (Journal of Pharmaceutical Sciences, 79(6): 476-482:1990).
Transwell cell culture chamber (Costar) having a membrane filter coated with collagen (3 μm pores, 0.33 cm^2 growth area) was placed on a 24-well plate. Caco-2 cells (purchased from ATCC) were seeded at the amount of 6.6×10^4 cells/filter (2×10^5 cells/cm^2) (D-MEM medium, 10% FBS (Fetal Bovine Serum), 0.1 mM NEAA (Non Essential Amino Acid), 100 U/mL penicillin, 100 μg/mL streptomycin, supplied from Gibco, and 25 mM glucose). Each Transwell cell culture chamber was placed in each well in a 24-well plate. 0.75 mL of the medium was filled in an external chamber and 0.15 mL of the medium was filled in an internal chamber. The medium was changed every 2 to 3 days, and 18 to 25 days after seeding when a single layer of Caco-2 cells was formed, the cells were used for the test.
In the test for examining the permeability of the compound, the Caco-2 cells cultured in the chamber were used. The internal and external chamber solutions were replaced twice with Hanks balanced salt solution (HBSS) containing 25 mM glucose, 10 mM Hepes and 0.05% Tween 80. […] A permeability coefficient (Papp) was calculated from the formula Papp=dQ/dt/(Co×A). […]

male beagle dogs = assay: Effect of combination with pravastatin on plasma total cholesterol levels in dogs; type: in vivo, dog
Excerpt: The effect of the combination of the compounds described in Example with pravastatin (HMG-CoA reductase inhibitor) on plasma cholesterol levels in dogs was examined.
To male beagle dogs (supplied from Kitayama Labes, body weight 9 to 13 kg), usual solid feedstuff (DS-A: Oriental Yeast Co., Ltd.) was given once daily at 13:00 to 14:00. The light was turned on from 7:00 to 19:00 as a light period, and the remaining was defined as a dark period. Water was given ad libitum. In the morning in the week prior to the administration, the blood was collected with heparin from forearm cephalic vein, and plasma was collected by centrifugation. The total cholesterol level of this plasma was measured using the commercially available cholesterol level measurement kit by the enzymatic method (Cholesterol-E Test Wako). The dogs were grouped so that the total cholesterol levels were almost equal. Sodium pravastatin (1 mg/kg, Sankyo) alone or 3 mg/kg of the compound described in each of Examples alone or the combination thereof was orally administered once daily just before feeding for 7 days. Pravastatin was dissolved in distilled water, and the compound described in Example was suspended in 0.5% methylcellulose solution for administration. On the day after the final administration, the blood was collected from the forearm cephalic vein under starving, to which plasma was obtained. The total cholesterol level therein was measured by the same way. As a result, the total cholesterol level in the plasma was reduced by 7 mg/dL (6%) by orally administering 1 mg/kg/day of pravastatin for 7 days. The total cholesterol level in the plasma was reduced by […] (3 to 8%) by orally administering 3 mg/kg/day of the compound described in each of Examples for 7 days. When pravastatin and the compound described in each of Examples were co-administered at this dosages, the total cholesterol in the plasma was reduced by 14 to 24 mg/dL (12 to 20%). The reduction rate of the total cholesterol level was larger in the co-administration with the compound described in Example than in the administration of pravastatin alone, and the augmented effect by the co-administration was observed.

Caco-2 cells [2] = assay: Facilitation effect on permeability of combined compound (pravastatin, atorvastatin) through Caco-2 cells
Procedure: The permeability through Caco-2 cells was measured by the same way as in Test Example 15.
It was examined whether the permeability coefficient of the combined compound was changed in the presence of the compound described in Examples or the compound in Comparative Examples.

[3] = pravastatin 1 mg/kg alone, oral once daily for 7 days, vehicle 1

SMILES	PERMEATION RATIO (PERMEATION × 10^−6 cm/s) (Caco-2 cells [1]; 100 μM in internal chamber, HBSS pH 7.4, 37° C.)	permeability coefficient (Papp) through Caco-2 cells (Caco-2 cells [1]; 100 μM, 37° C., pH 7.4)	plasma total cholesterol BEFORE TREATMENT (male beagle dogs; pravastatin 1 mg/kg alone group, baseline, N=4, mean±standard error)	plasma total cholesterol AFTER TREATMENT (male beagle dogs; pravastatin 1 mg/kg alone, oral once daily for 7 days, N=4, mean±standard error)	plasma total cholesterol BEFORE TREATMENT − AFTER TREATMENT (male beagle dogs; [3])	reduction rate with respect to the data before administration (number in parenthesis) (male beagle dogs; [3])	total cholesterol level in the plasma reduced by (male beagle dogs; pravastatin alone 1 mg/kg/day oral, 7 days)	total cholesterol level in the plasma, reduction rate (male beagle dogs; pravastatin alone 1 mg/kg/day oral, 7 days, with respect to before administration)	RATE OF INCREASE (%) (Caco-2 cells [2]; statin alone (reference = 100))	[…] (PERMEATION × 10^−6 cm/s) (Caco-2 cells [2]; statin alone, 25 μM, 37° C., 2 hours)
CC(C)NCC(O)COc1cccc2ccccc12 (stereo not shown) [Propranolol]	29.4 × 10^−6 cm/s	high permeability coefficients	–	–	–	–	–	–	–	–
CC[C@H](C)C(=O)O[C@H]1C[C@H](O)C=C2C=C[C@H](C)[C@H](CC[C@@H](O)C[C@@H](O)CC(=O)O)[C@H]21 [pravastatin, reference compound]	–	–	114 ± 6 mg/dL	106 ± 5 mg/dL	7 mg/dL	6	7 mg/dL	6%	100%	0.33 × 10^−6 cm/s
